{P} = phosphate
Assays:
[1] = system: human leukemia cell line HL60; assay: MTT assay, HL60; format: cell-based; details: sgRNA 1 μM, no delivery reagent, 72 hours (3 days), vs sgRNA non-administered group
Procedure: (§1) Each sgRNA (final concentration 1 μM) was added to a 96-well culture plate containing human cancer cell lines (1,000 cells/100 μl medium), without using a reagent for the delivery of the sgRNA into the cells. The cells were then cultured in a 37° C. CO2 incubator. […] Leukemia cells HL60, and myeloma cells KMM1 and RPMI-8226 were used as the human cancer cell lines, and the viable cell count was compared with that of an sgRNA non-administered group. As controls, each sgRNA was introduced to normal cells HEK293, and the same MTT assay was performed. • (1-3) Flow Cytometry Experiment

[2] = system: human myeloma cell line KMM1; assay: MTT assay, KMM1; format: cell-based; details: sgRNA 1 μM, no delivery reagent, 72 hours (3 days), vs sgRNA non-administered group
Procedure: as §1

[3] = system: human myeloma cell line RPMI-8226; assay: MTT assay, RPMI-8226; format: cell-based; details: sgRNA 1 μM, no delivery reagent, 72 hours (3 days), vs sgRNA non-administered group
Procedure: as §1

[4] = system: human leukemia cells HL60; assay: Mouse xenograft experiment; format: in vivo, immunodeficient nude mice; details: HL60 subcutaneous xenograft; sgRNA 100 μM, 10 μl at transplantation site once daily for 5 days; difference of median survival time vs non-administered or ineffective-sgRNA group
Procedure: 2×10^6 human leukemia cells HL60 were subcutaneously transplanted into immunodeficient nude mice with an extracellular matrix. Each heptamer-type sgRNA (100 μM) was continuously administered to the transplantation site in a dose of 10 μl, once each day for 5 days, and the tumor volume was measured every day. The mice were euthanized upon the tumor volume reaching 1,500 mm^3. The experiment was conducted with groups of 6 to 8 mice, and the difference between the median value of the survival time of each sgRNA administered group and the median value of the survival time of the non-administered group (or a group administered with the ineffective heptamer-type sgRNA) was calculated as the extended lifetime due to the heptamer-type sgRNA. • (2) Results • (2-1) MTT Assay

Substance | MTT assay (Percentage reduction of viable cells) HL60 [1] [%] | MTT assay (Percentage reduction of viable cells) KMM1 [2] [%] | MTT assay (Percentage reduction of viable cells) RPMI [3] [%] | Mouse xenograft experiment (Extended lifetime) [4]
Hep2(PKCb): heptamer-type sgRNA 5′-CCGGGGC-3′, phosphorylated at the 5′ and 3′ ends, 2′-O-methylated (all 2'-O-methyl, 5' {P}, 3' {P}, backbone not given here) | 93 | 48 | 75 | 
Hep1(bcl-2): heptamer-type sgRNA 5′-GGGCCAG-3′, phosphorylated at the 5′ and 3′ ends, 2′-O-methylated (all 2'-O-methyl, 5' {P}, 3' {P}, backbone not given here) | 88 | 0 | 18 | (+22 days)
Hep9(FGFR3): heptamer-type sgRNA 5′-CACCAGC-3′, phosphorylated at the 5′ and 3′ ends, 2′-O-methylated (all 2'-O-methyl, 5' {P}, 3' {P}, backbone not given here) | 95 | 79 | 76 | (+6 days)
Hep3(MYC): heptamer-type sgRNA 5′-GCAGCUC-3′, phosphorylated at the 5′ and 3′ ends, 2′-O-methylated (5' {P}, 3' {P}, sugars by position and backbone not given here; 2'-O-methylated) | 90 | 67 | 2 | 
Hep8(FGFR3): heptamer-type sgRNA 5′-AUCUUCA-3′, phosphorylated at the 5′ and 3′ ends, 2′-O-methylated (all 2'-O-methyl, 5' {P}, 3' {P}, backbone not given here) | 87 | 78 | 76 | (+10 days)
Hep5(MYC): heptamer-type sgRNA 5′-GCUGCUG-3′, phosphorylated at the 5′ and 3′ ends, 2′-O-methylated (5' {P}, 3' {P}, sugars by position and backbone not given here; 2'-O-methylated) | 86 | 72 | 0 | 
Hep1(HAGE): heptamer-type sgRNA 5′-UCUUUCC-3′, phosphorylated at the 5′ and 3′ ends, 2′-O-methylated (all 2'-O-methyl, 5' {P}, 3' {P}, backbone not given here) | 91 | 61 | 5 | 
Hep5(PRAME): heptamer-type sgRNA 5′-GCUCUGC-3′, phosphorylated at the 5′ and 3′ ends, 2′-O-methylated (5' {P}, 3' {P}, sugars by position and backbone not given here; 2'-O-methylated) | 94 | 17 | 54 | 
Hep2(HAGE): heptamer-type sgRNA 5′-UAUAUUU-3′, phosphorylated at the 5′ and 3′ ends, 2′-O-methylated (all 2'-O-methyl, 5' {P}, 3' {P}, backbone not given here) | 94 | 72 | 5 | 
Hep5(IRF4): heptamer-type sgRNA 5′-GGGUCCU-3′, phosphorylated at the 5′ and 3′ ends, 2′-O-methylated (5' {P}, 3' {P}, sugars by position and backbone not given here; 2'-O-methylated) | 86 | 69 | 6 | 
Hep2(bcl-2): heptamer-type sgRNA 5′-GGGGGCG-3′, phosphorylated at the 5′ and 3′ ends, 2′-O-methylated (all 2'-O-methyl, 5' {P}, 3' {P}, backbone not given here) | 99 | 24 | 69 | (+19 days)
Hep7(WT1): heptamer-type sgRNA 5′-CUGCUUU-3′, phosphorylated at the 5′ and 3′ ends, 2′-O-methylated (5' {P}, 3' {P}, sugars by position and backbone not given here; 2'-O-methylated) | 98 | 24 | 46 | 
Hep1(MYC): heptamer-type sgRNA 5′-CAGCUCG-3′, phosphorylated at the 5′ and 3′ ends, 2′-O-methylated (all 2'-O-methyl, 5' {P}, 3' {P}, backbone not given here) | 90 | 56 | 16 | 
Hep(YW): heptamer-type sgRNA 5′-GCAUGCG-3′, phosphorylated at the 5′ and 3′ ends, 2′-O-methylated (all 2'-O-methyl, 5' {P}, 3' {P}, backbone not given here) | 96 | 59 | 0 | 
Hep6(PRAME): heptamer-type sgRNA 5′-UCCAGGU-3′, phosphorylated at the 5′ and 3′ ends, 2′-O-methylated (all 2'-O-methyl, 5' {P}, 3' {P}, backbone not given here) | 95 | 15 | 10 | 

Reference: patent publication US9617538B2, “Heptamer-type small guide nucleic acids inducing apoptosis of human leukemia cells” (NIIGATA UNIVERSITY OF PHARMACY AND APPLIED LIFE SCIENCE, priority 2011, dated 2017)
